“Also recorded” adds a separate entry of the source. Where two headings read alike, the source gives them in different places.
Tests used:
[1] = target: T1, Bovine pancreatic trypsin (Bos taurus, UniProt P00760); test: biochemical; type: biochemical
T1 construct: purchased Sigma Aldrich; host or cells: bovine pancreas
T1 sequence (P00760 24-246): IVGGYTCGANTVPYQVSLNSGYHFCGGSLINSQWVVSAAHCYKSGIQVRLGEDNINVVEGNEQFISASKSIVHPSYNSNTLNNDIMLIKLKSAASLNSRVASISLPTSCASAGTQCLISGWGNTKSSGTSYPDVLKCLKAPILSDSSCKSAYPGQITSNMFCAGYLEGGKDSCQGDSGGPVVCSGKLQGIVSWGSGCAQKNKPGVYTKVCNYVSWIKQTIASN

physchem = settings: pH 9, aqueous with cosolvent or surfactant or cyclodextrin, kinetic from dmso stock
DEN2V NS2B-NS3pro = DEN2V NS2B-NS3pro (Dengue virus type 2, UniProt Q91H74); test: Steady-state kinetics of inhibitors of DEN2V NS2B-NS3pro (Boc-GRR-AMC substrate, Dynafit); type: biochemical, Dengue 2 virus; settings: for Mechanism: HTS-identified hits
Sequence of DEN2V NS2B-NS3pro (Q91H74 entry or part of it, added parts left off): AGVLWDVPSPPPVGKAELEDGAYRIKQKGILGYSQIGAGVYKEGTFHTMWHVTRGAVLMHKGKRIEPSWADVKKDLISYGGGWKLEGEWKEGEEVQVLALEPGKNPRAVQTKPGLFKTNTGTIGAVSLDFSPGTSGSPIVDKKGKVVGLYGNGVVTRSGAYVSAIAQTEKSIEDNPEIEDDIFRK
Sequence of DEN2V NS2B-NS3pro (Q91H74 entry or part of it partner, added parts left off): as the sequence (Q91H74 entry or part of it, added parts left off) above

WNV NS2B-NS3pro = WNV NS2B-NS3pro (West Nile virus, UniProt P06935); test: Steady-state kinetics of inhibitors of WNV NS2B-NS3pro; type: biochemical
Sequence of WNV NS2B-NS3pro (P06935 1502-1679 limits assumed): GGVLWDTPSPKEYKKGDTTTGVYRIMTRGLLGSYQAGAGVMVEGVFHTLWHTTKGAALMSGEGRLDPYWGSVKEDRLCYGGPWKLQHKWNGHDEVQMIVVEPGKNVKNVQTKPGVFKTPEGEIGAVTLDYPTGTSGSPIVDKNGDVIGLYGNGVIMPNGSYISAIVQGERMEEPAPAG
Sequence of WNV NS2B-NS3pro (P06935 1424-1463 partner limits assumed): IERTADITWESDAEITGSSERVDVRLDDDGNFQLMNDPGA

[2] = DEN2V NS2B-NS3 Ki1, second series analogs
[3] = DEN2V NS2B-NS3 Ki2, second series analogs
[4] = Ki1 (from biochemical protease inihibition experiments) Dengue 2 virus NS2B-NS3
[5] = Ki1 (from biochemical protease inihibition experiments) West Nile virus NS2B-NS
[6] = Table 1, DEN2V NS2B-NS3pro, read-out: Ki1
[7] = Table 1, DEN2V NS2B-NS3pro, read-out: Ki2
[8] = Table 2, WNV NS2B-NS3pro, read-out: Ki1
[9] = Table 2, WNV NS2B-NS3pro, read-out: Ki2

N=C(N)c1ccccc1 [Benzamidine, reference compound]
Mechanism (trypsin inhibition) [1]: competitive trypsin inhibitors

O=[N+]([O-])c1ccc(OP(=O)([O-])Oc2ccc([N+](=O)[O-])cc2)cc1.[Na+] [Compound 6A24]
solubility (physchem): < 10 µM

Nc1cccc2c1C(=O)c1ccccc1C2=O [Compound 6A25]
solubility (physchem): < 10 µM

Nc1ccc2c(c1)C(=O)c1ccccc1C2=O [Compound 6A27]
solubility (physchem): < 10 µM

Cc1ccc2c(c1)C(=O)c1ccccc1C2=O [Compound 6A28]
solubility (physchem): < 10 µM

O=c1[nH]c2cc([N+](=O)[O-])c([N+](=O)[O-])cc2[nH]c1=O [Compound 6A29]
solubility (physchem): < 10 µM

O=C1c2cccc(O)c2C(=O)c2cccc(O)c21 [Compound 6A30]
solubility (physchem): < 10 µM

Nc1ccc2c(c1[N+](=O)[O-])C(=O)c1ccccc1C2=O [Compound 6A35]
solubility (physchem): < 10 µM

O=[N+]([O-])c1cc([N+](=O)[O-])c2ccccc2c1[O-].[Na+] [Compound 6A40]
solubility (physchem): < 10 µM

Cc1cccc2c1C(=O)c1cccc([N+](=O)[O-])c1C2=O [Compound 6A41]
solubility (physchem): < 10 µM

COc1ccc(N)c2c1C(=O)c1ccccc1C2=O [Compound 6A46]
solubility (physchem): > 10 µM

CN/N=C1/c2ccccc2C(=O)c2c(O)ccc(O)c21 [Compound 6A48]
solubility (physchem): > 10 µM

O=Cc1ccc2c(c1)C(=O)c1ccccc1C2=O [Compound 6A50]
solubility (physchem): > 10 µM

Nc1ccc(O)c2ccccc12 [Compound 6A51]
solubility (physchem): > 10 µM

Nc1c(Br)cc(O)c2c1C(=O)c1ccccc1C2=O [Compound 6A53]
solubility (physchem): < 10 µM

Oc1ccc2cc3ccc(O)cc3c(O)c2c1 [Compound 6A60]
Ki (DEN2V NS2B-NS3pro; [2]): 7 ± 5 µM
Ki (DEN2V NS2B-NS3pro; [3]): 3 ± 1 µM
Ki (DEN2V NS2B-NS3pro; [4]): 7 µM
DEN2V NS2B-NS3 Ki1 (DEN2V NS2B-NS3pro; second series analogs): lowest Ki1 of all anthracene-based analogs
DEN2V NS2B-NS3 Mechanism (DEN2V NS2B-NS3pro; second series analogs): Mixed
Ki (WNV NS2B-NS3pro; [5]): 11 µM
Trypsin Mechanism [1]: did not inhibit trypsin cleavage activity; also recorded: No inhibition
solubility (physchem): > 10 µM

O=C1c2ccc(O)c(O)c2C(=O)c2c(O)ccc(O)c21 [Compound 6A61]
Ki (DEN2V NS2B-NS3pro; [2]): 72 ± 15 µM
Ki (DEN2V NS2B-NS3pro; [3]): 10 ± 2 µM
Ki (DEN2V NS2B-NS3pro; [4]): 72 µM
DEN2V NS2B-NS3 Mechanism (DEN2V NS2B-NS3pro; second series analogs): Mixed
Ki (WNV NS2B-NS3pro; [5]): 31 µM
Trypsin Mechanism [1]: did not inhibit trypsin; also recorded: No inhibition
solubility (physchem): > 10 µM

O=c1ccc2[n+]([O-])c3ccc(O)cc3oc-2c1 [Compound 9A3]
Ki (DEN2V NS2B-NS3pro; [4]): 82 µM
Ki (WNV NS2B-NS3pro; [5]): 72 µM

CN(C)c1ccc2nc3ccc(=O)cc-3sc2c1 [Compound 9A4]
Ki (DEN2V NS2B-NS3pro; [4]): 359 µM
Ki (WNV NS2B-NS3pro; [5]): 431 µM

CCN(CC)c1ccc2nc3c4ccccc4c(=O)cc-3oc2c1 [Compound 9A6]
Ki (DEN2V NS2B-NS3pro; [4]): 53 µM
Ki (WNV NS2B-NS3pro; [5]): 47 µM

CC[C@H](C)[C@H]1O[C@]2(CC[C@@H]1C)C[C@@H]1C[C@@H](C/C=C(\C)[C@@H](O[C@H]3C[C@H](OC)[C@@H](O[C@H]4C[C@H](OC)[C@@H](O)[C@H](C)O4)[C@H](C)O3)[C@@H](C)/C=C/C=C3\CO[C@@H]4[C@H](O)C(C)=C[C@@H](C(=O)O1)[C@]34O)O2 [MS21, Ivermectin, reference compound]
Mechanism (DEN2V NS2B-NS3pro; Table 1, DEN2V NS2B-NS3pro): Mixed
Ki (DEN2V NS2B-NS3pro; [6]): 79 ± 21 µM
Ki (DEN2V NS2B-NS3pro; [7]): 35 ± 4 µM
Mechanism (WNV NS2B-NS3pro; Table 2, WNV NS2B-NS3pro): Mixed
Ki (WNV NS2B-NS3pro; [8]): 55 ± 18 µM
Ki (WNV NS2B-NS3pro; [9]): 16 ± 4 µM

Cc1cc(C(C)(C)CC(C)(C)C)ccc1OCCOCC[N+](C)(C)Cc1ccccc1.[Cl-] [MS22, Methylbenzethonium chloride, reference compound]
Mechanism (DEN2V NS2B-NS3pro; Table 1, DEN2V NS2B-NS3pro): Mixed
Ki (DEN2V NS2B-NS3pro; [6]): 322 ± 81 µM
Ki (DEN2V NS2B-NS3pro; [7]): 160 ± 39 µM
Mechanism (WNV NS2B-NS3pro; Table 2, WNV NS2B-NS3pro): Mixed
Ki (WNV NS2B-NS3pro; [8]): 141 ± 20 µM
Ki (WNV NS2B-NS3pro; [9]): 307 ± 80 µM

CO[C@H]1C[C@H](O[C@@H]2/C(C)=C/C[C@@H]3C[C@@H](C[C@]4(CC[C@H](C)[C@@H](C5CCCCC5)O4)O3)OC(=O)[C@@H]3C=C(C)/C(=N/O)[C@H]4OC/C(=C\C=C\[C@@H]2C)[C@]43O)O[C@@H](C)[C@@H]1O [MS24, Selamectin, reference compound]
Ki (DEN2V NS2B-NS3pro; Ki1, Table 1, DEN2V NS2B-NS3pro): 63 ± 18 µM
Ki (DEN2V NS2B-NS3pro; Ki2, Table 1, DEN2V NS2B-NS3pro): 45 ± 8 µM
Mechanism (DEN2V NS2B-NS3pro; Table 1, DEN2V NS2B-NS3pro): Mixed
Ki (WNV NS2B-NS3pro; Ki1, Table 2, WNV NS2B-NS3pro): 15 ± 9 µM
Ki (WNV NS2B-NS3pro; Ki2, Table 2, WNV NS2B-NS3pro): 28 ± 6 µM
Mechanism (WNV NS2B-NS3pro; Table 2, WNV NS2B-NS3pro): Mixed

Source: US8778876B2, “Small-molecule inhibitors of Dengue and West Nile virus proteases” (The Board of Regents of the University of Texas System, priority 2011, dated 2014)
